Source: ChEMBL document CHEMBL1201862, “PubChem BioAssay data set” (2004)
Active and inactive are the calls of the source. For most assays here, no stated cut-off is given here; in the data, actives have a measured EC50 and inactives only a lower limit.

Legend:
[1] = Luminescence Cell-Based Dose Response HTS to Identify Activators of Luciferase Translation or Activity in H4 […] Cells. [Related pubchem assays: 1829 (Project Summary), 1814 (Primary HTS)]; format: functional
[2] = Luminescence Cell-Based Dose Confirmation HTS to Identify Activators of 5'UTR Stem-Loop Driven Alpha-Synuclein mRNA Translation in H4 Neuroglioblastoma Cells. [Related pubchem assays: 1829 (Project Summary), 1814 (Primary HTS)]; format: functional
[3] = test system: H4; assay: Luminescence Cell-Based Dose Response HTS to Identify Activators of 5'UTR Stem-Loop Driven Prion Protein mRNA Translation in H4 Neuroglioblastoma Cells. [Related pubchem assays: 1829 (Project Summary), 1814 (Primary HTS)]; format: functional; conditions: Homo sapiens
[4] = target: Cytochrome P450 2C9 (Homo sapiens, UniProt P11712)
Cytochrome P450 2C9, sequence (P11712 whole entry): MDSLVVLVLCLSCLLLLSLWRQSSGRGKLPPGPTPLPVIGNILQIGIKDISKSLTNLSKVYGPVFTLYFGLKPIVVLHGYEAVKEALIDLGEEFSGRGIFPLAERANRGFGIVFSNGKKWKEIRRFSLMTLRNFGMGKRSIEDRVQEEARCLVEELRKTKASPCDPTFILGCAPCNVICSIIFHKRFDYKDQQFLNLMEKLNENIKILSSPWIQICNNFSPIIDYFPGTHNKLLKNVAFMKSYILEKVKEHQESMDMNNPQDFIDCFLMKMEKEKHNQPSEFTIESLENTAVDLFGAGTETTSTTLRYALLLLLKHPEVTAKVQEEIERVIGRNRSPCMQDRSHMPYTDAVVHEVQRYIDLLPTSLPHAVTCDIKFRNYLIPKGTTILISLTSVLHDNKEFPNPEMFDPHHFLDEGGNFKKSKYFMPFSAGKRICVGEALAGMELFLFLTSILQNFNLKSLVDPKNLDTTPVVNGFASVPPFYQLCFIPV

[5] = Trypanosoma cruzi growth suppression in host cells – NIH3T3 host cells, beta-gal luminescence, confirmation (AID 2044); format: functional, cell-based;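 further: intracellular parasites grown in NIH/3T3 mouse fibroblasts as host cells; luminescent beta-galactosidase reporter signal from transgenic T. cruzi replicating inside host cells; inhibitors lower the luminescence signal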
[6] = NIH3T3 cell viability loss – ATP luminescence, mouse fibroblasts, counter-screen, dose response (AID 2010); format: functional, cell-based;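 further: cells exposed to compound for about 90 hours before reading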

Compound	EC50 [1]	EC50 [2]	EC50 [3]	AC50 [4]	EC50 [5]	EC50 [6]
CC(C)c1ccc(CNc2ccc3c(c2)ncn3C)cc1	0.228 µM (inconclusive)	0.217 µM (active)	> 120 µM (not active)			
NC(=O)NCc1ccc(Cl)cc1				0.0501 µM (inconclusive)		
CNC(=S)N1CCN(c2cccc(OC)c2)CC1				22.4 µM (inconclusive)		
CC(C)c1ccc(NC(=O)N2CCc3ccccc3C2)cc1	12.2 µM (active)	12.1 µM (active)	18.3 µM (active)			
Cc1ccc(-c2nc3ccccc3n3nnnc23)cc1	10.1 µM (active)	0.363 µM (active)	4.81 µM (active)			
CC1=CC(C)(C)N2C(=O)C3(C(C#N)=C(N)Oc4cc(C)oc(=O)c43)c3cc(C)cc1c32 (stereo not given)					0.253 µM (active)	> 60 µM (not active)
O=C(Nc1ccc(-n2ccc(C(F)(F)F)n2)cc1)Nc1cccc(Cl)c1					2.01 µM (active)	6.82 µM (active)
O=C(/C=C/c1ccc([N+](=O)[O-])s1)N1CCN(c2ccccc2)CC1					1.81 µM (active)	9.18 µM (active)
Cc1ccc(-c2nn(-c3ccccc3)cc2C(=O)Nc2ccc(C)c(S(=O)(=O)N3CCOCC3)c2)cc1	> 120 µM (not active)	> 120 µM (not active)	> 120 µM (not active)		1.57 µM (active)	> 60 µM (not active)
Cc1cc(Oc2ccccc2)nc(NCc2ccccc2)n1				10 µM (inconclusive)		
CCOC(=O)c1sc(N(Cc2ccccc2)C(=O)CN2C(=O)CN(C)C2=O)nc1C				11.2 µM (inconclusive)		
N#Cc1c(N)n(Cc2ccccc2)c(=O)c2cc([N+](=O)[O-])ccc12					1.41 µM (active)	> 60 µM (not active)
COc1cc2cc3c(N)c(C(=O)NCc4ccco4)sc3nc2cc1OC	49.9 µM (active)	73.7 µM (active)	11.1 µM (active)			
CCOc1ccc(C(=O)Nc2c(C(=O)N3CCC(N4CCCCC4)CC3)oc3ccccc23)cc1					6.28 µM (active)	> 60 µM (not active)
COc1ccc2cc(C(=O)NCC3CCCO3)[nH]c2c1 (stereo not given)	22.9 µM (active)	7.02 µM (active)				
Cn1c(=O)c(-c2cccs2)nc2cnc(Oc3ccccc3)nc21				20 µM (inconclusive)		
Cc1ccc(C2NC(=O)c3c(sc(C)c3C)N2)c(O)c1 (stereo not given)	22.4 µM (active)	3.83 µM (active)	21.7 µM (active)			
CC(=O)c1cn(CCCCCCCCCCn2cc(C(C)=O)c(=O)[nH]c2=O)c(=O)[nH]c1=O				3.16 µM (inconclusive)		
CCCOc1cccc(CN2CCCCC2c2cccnc2)c1 (stereo not given)					1.53 µM (active)	> 60 µM (not active)
Cc1cccc(N2CCN(C(c3ccncc3)c3nnnn3C(C)(C)C)CC2)c1C (stereo not given)					2.57 µM (active)	> 60 µM (not active)
CSCCC(=O)Nc1cc(S(=O)(=O)N2CCOCC2)ccc1N1CCN(C)CC1					1.94 µM (active)	> 60 µM (not active)

Compound	EC50 [1]	EC50 [2]	EC50 [3]	AC50 [4]	EC50 [5]	EC50 [6]
CCOc1ccc(/C=C/C(=O)C(C(N)=O)=C2SCCS2)cc1	> 120 µM (not active)	1.98 µM (active)	7.17 µM (active)			
Cc1cc(C)c(C)c(C(=O)CSc2nnc(-c3ccc4[nH]c(C)c(C)c4c3)o2)c1C					1.61 µM (active)	> 60 µM (not active)
O=[N+]([O-])c1cccc(-c2nnn(C34CC5CC(CC(C5)C3)C4)n2)c1	7.38 µM (active)	> 120 µM (not active)	15 µM (active)			
Cn1c(C(=O)NCc2cccnc2)cc2sc(Cl)cc21					0.488 µM (active)	> 60 µM (not active)
O=C(c1cnccn1)N1CCC2(CC1)CN(c1ccncc1)C2				25.1 µM (inconclusive)		
O=C(NCCCn1ccnc1)c1sc2cccc(F)c2c1Cl					2.02 µM (active)	> 60 µM (not active)
CC1(C)OC2OC(COC(=O)c3ccccc3)C3OC(C)(C)OC3C2O1 (stereo not given)	10.1 µM (active)	15.5 µM (active)	17.3 µM (active)			
CCOCCCN1C(=O)CN(C2CCCCC2)C(=O)C1c1ccc(OCC)c(OC)c1 (stereo not given)				11.2 µM (inconclusive)		
c1ccc(-c2cc(-c3nc4ccccc4[nH]3)c3ccccc3n2)cc1					1.7 µM (active)	> 60 µM (not active)
CCCCOC(=O)c1[nH]c(C)c(C(=O)OC)c1C	51.1 µM (active)	2.88 µM (active)	37.7 µM (active)			
Brc1ccccc1C1CC(c2ccccc2)=Nc2ccccc2N1 (stereo not given)	11.5 µM (active)	9.58 µM (active)	36.5 µM (active)			
N=C(NOC(=O)C1CCCCC1)c1ccc(Br)cc1	28.7 µM (active)	27.6 µM (active)	1.23 µM (active)			
CC1C(=O)OC2C1CCC1(C)CCC(=O)C(C)C21 (stereo not given)					2.61 µM (active)	> 60 µM (not active)
Cc1ccnc(NC(=O)CCCNC(=O)c2ccc(Cl)cc2)c1	24.3 µM (active)	18.2 µM (active)	51.9 µM (active)			
Cc1cc(C)c2c(CN3CCC(C)CC3)cc(=O)oc2c1	> 120 µM (not active)	0.419 µM (active)	26.3 µM (active)			
CN(C(=O)c1cccc(N2C(=O)C3C4C=CC(C4)C3C2=O)c1)C1CCCCC1 (stereo not given)	> 120 µM (not active)	> 120 µM (not active)	> 120 µM (not active)			
COc1ccc2[nH]c3c(c2c1)CN(C)CC3				39.8 µM (inconclusive)		
NC(=O)c1ccccc1Nc1nc2nc3ccccc3c(=O)n2cc1Br	8.23 µM (active)	> 120 µM (not active)	> 120 µM (not active)			
Cc1cccc(CNc2ncncc2-c2cccc(NS(C)(=O)=O)c2)c1				1 µM (inconclusive)		
COc1ccc2c(c1OC)CN1CCc3cc4c(cc3C1C2)OCO4 (stereo not given) [TETRAHYDROBERBERINE]					3.43 µM (active)	> 60 µM (not active)
